Legend:
Assay type in all cases: cell-based
[1] = system: IL-6 in human monocyte cell line (THP-1 cells); assay: IL-6 inhibition in LPS-stimulated THP-1 cells (HTRF); details: IL-6 in LPS-stimulated THP-1 cells, HTRF
Procedure: Human monocyte cell line (THP-1 cells; Catalog # TIB-202, ATCC, Manassas, Va.) were cultured in Roswell Park Memorial Institute (RPMI) 1640 Medium (Catalog #21870-100, Buffalo, N.Y.) with 1% L-glutamine, 1% HEPES, 1% Sodium Pyruvate, 2% Sodium Bicarbonate supplemented with 100 units/mL penicillin, 50 μg/mL streptomycin, 2-mercaptoethanol (0.05 mM) [basal medium] and 10% fetal bovine serum (Catalog #16140089, Life Technologies, Carlsbad, Calif.) at 37° C. and 5% CO2.
THP-1 cells were cultured in basal media with 1% FBS for 24 hours before the start of the assay. Each compound was dissolved in DMSO as a 10 mM stock and used to prepare compound source plates. Serial dilution (1:3, 10-point dose-response curves starting from 10 μM) and compound transfer was performed using the ECHO 550 (Labcyte, Sunnyvale, Calif.) into 384-well white low volume assay plates (Greiner Bio-One) with appropriate DMSO backfill for a final DMSO concentration of 0.1%. THP-1 cells were plated at 5000 cells/well in the 384-well plates and incubated at 37° C. for 2 h. 500 ng/mL of LPS was added after 2 hours and cells were incubated for another 22 hours at 37° C. Plates were spun in a centrifuge for 1 minute at […] and a mixture of anti-IL6 XL665, and anti-IL6 Cryptate diluted in reconstitution buffer (Cisbio Inc.) was added to each well. Following incubation for 3 hrs at room temperature, Homogeneous Time-Resolved Fluorescence (HTRF) was measured using the Envision (Perkin Elmer) at 665 nm and […]. The ratio of fluorescence at 665 nm to 620 nm was used as a readout for IL6 quantification. All samples were processed in duplicate. Readings were normalized to DMSO treated cells and normalized activities were utilized for EC50 calculations using the dose-response log (inhibitor) vs. response-variable slope (four parameters) nonlinear regression feature available in GraphPad Prism 5.0 (or Dotmatics). For EC50 of >10 μM, the percent inhibition at 10 μM is provided.

SW480 colon cancer cells = assay: Cell viability assay (CellTiter-Blue), four days; details: Homo sapiens, 96 h, CellTiter-Blue cell viability
Procedure: Representative compounds were screened using the following assay procedure to assess the effect on cell viability as described below.
Each compound was dissolved in DMSO as a 10 mM stock and used to prepare compound source plates. Serial dilution (1:3, 8-point dose-response curves from 10 μM to 0.0045 μM) and compound transfer was performed using the ECHO 550 (Labcyte, Sunnyvale, Calif.) into 96-well clear bottom, black-walled plates (Corning-Costar).
Approximately 2×10^3 SW480 colon cancer cells were seeded into each well and allowed to incubate in the presence or absence of compound for four days at 37° C./5% CO2. Eight replicates of DMSO-treated cells served as controls and cells treated with compound were performed in duplicate.
After incubation, 20 μL of CellTiter-Blue (Promega) was added to each well allowed to incubate for approximately 3 hours. This reagent was a buffered solution which contains resazurin, metabolically active cells were able to reduce rezarurin (blue) into resorufin (pink) which was highly fluorescent. This measured fluorescence was used as a readout for cell viability.
After incubation, the plates were read at Ex 560 nm Em 590 nm (Cytation 3, BioTek). Dose-response curves were generated and EC50 concentration values were calculated using non-linear regression curve fit in the GraphPad Prism (San Diego, Calif.) or Dotmatics' Studies Software (Bishops Stortford, UK). For EC50 of >10 μM, the percent inhibition at 10 μM is provided.

[2] = system: Primary human fibroblasts derived from IPF patients (LL29 cells) treated with TGF-β1; assay: Inhibition of the fibrotic process: αSMA staining in TGF-β1 treated fibroblasts; details: Fibroblast, 96 h, LL29 fibroblasts treated with TGF-β1, 4 days
Description: Representative compounds were screened using primary human fibroblasts (derived from IPF patients) treated with TGF-β1 to determine their ability to inhibit the fibrotic process.
Primary human fibroblasts derived from IPF patients (LL29 cells) [^1Xiaoqiu Liu, et. al., “Fibrotic Lung Fibroblasts Show Blunted Inhibition by cAMP Due to Deficient cAMP Response Element-Binding Protein Phosphorylation”, Journal of Pharmacology and Experimental Therapeutics (2005), 315(2), 678-687; ^2Watts, K. L., et. al., “RhoA signaling modulates cyclin D1 expression in human lung fibroblasts; implications for idiopathic pulmonary fibrosis”, Respiratory Research (2006), 7(1), 88] were obtained from American Type Culture Collection (ATCC) and expanded in F12 medium supplemented with 15% Fetal Bovine Serum and Penicillin/Streptomycin.
Each compound was dissolved in DMSO as a 10 mM stock and used to prepare compound source plates. Serial dilution (1:2, 11-point dose-response curves from 10 μM to 1.87 nM) and compound transfer was performed using the ECHO 550 (Labcyte, Sunnyvale, Calif.) into 384-well clear bottom assay plates (Greiner Bio-One) with appropriate DMSO backfill for a final DMSO concentration of 0.1%. LL29 cells are plated at 1,500 cells/well in 80 μL/well F12 medium supplemented with 1% Fetal Bovine Serum. One hour after addition of the cells, TGF-β1 (Peprotech; 20 ng/mL) was added to the plates to induce fibrosis (ref. 1 and 2 above). Wells treated with TGF-β1 and containing DMSO were used as controls. Cells were incubated at 37° C. and 5% CO2 for 4 days. Following incubation for 4 days, SYTOX green nucleic acid stain (Life Technologies [Thermo Fisher Scientific]) was added to the wells at a final concentration of 1 μM and incubated at room temperature for 30 min. Cells were then fixed using 4% formaldehyde (Electron Microscopy Sciences), washed 3 times with PBS followed by blocking and permeabilization using 3% Bovine Serum Albumin (BSA; Sigma) and 0.3% Triton X-100 (Sigma) in PBS. Cells were then stained with antibody specific to α-smooth muscle actin (αSMA; Abcam) (ref. 1 and 2 above) in 3% Bovine Serum Albumin (BSA; Sigma) and 0.3% Triton X-100 (Sigma) in PBS, and incubated overnight at 4° C. Cells were then washed 3 times with PBS, followed by incubation with Alexa Flor-647 conjugated secondary antibody (Life Technologies [Thermo Fisher Scientific]) and DAPI at room temperature for 1 hour. Cells were then washed 3 times with PBS and plates were sealed for imaging. αSMA staining was imaged by excitation at 630 nm and emission at 665 nm and quantified using the Compartmental Analysis program on the CellInsight CX5 (Thermo Scientific). Dead or apoptotic cells were excluded from analysis based on positive SYTOX green staining. % of total cells positive for αSMA were counted in each well and normalized to the average of 11 wells treated with TGF-β1 on the same plate using Dotmatics' Studies Software. The normalized averages (fold change over untreated) of 3 replicate wells for each compound concentration were used to create dose-responses curves and EC50 values were calculated using non-linear regression curve fit in the Dotmatics' Studies Software. For EC50 of >10 μM, the percent inhibition at 10 μM is provided.

[3] = system: Wnt activity (Wnt-responsive human Sp5 promoter, TCF/LEF binding sites) in SW480 colon carcinoma cells; assay: Wnt activity screening assay: Sp5-Luc luciferase reporter gene in SW480 cells; details: 10-point dose-response from 10 μM, incubated overnight
Description: The screening assay for Wnt activity is described as follows. Reporter cell lines can be generated by stably transducing cancer cell lines (e.g., colon cancer) or primary cells (e.g., IEC-6 intestinal cells) with a lentiviral construct that includes a Wnt-responsive promoter driving expression of the firefly luciferase gene.
SW480 colon carcinoma cells were transduced with a lentiviral vector expressing luciferase with a human Sp5 promoter consisting of a sequence of eight TCF/LEF binding sites. SW480 cells stably expressing the Sp5-Luc reporter gene and a hygromycin resistance gene were selected by treatment with 150 μg/mL of hygromycin for 7 days. These stably transduced SW480 cells were expanded in cell culture and used for all further screening activities. Each compound was dissolved in DMSO as a 10 mM stock and used to prepare compound source plates. Serial dilution (1:3, 10-point dose-response curves starting from 10 μM) and compound transfer was performed using the ECHO 550 (Labcyte, Sunnyvale, Calif.) into 384-well white solid bottom assay plates (Greiner Bio-One) with appropriate DMSO backfill for a final DMSO concentration of 0.1%. For Sp5-Luc reporter gene assays, the cells were plated at 4,000 cells/well in 384-well plates with medium containing 1% fetal bovine serum and incubated overnight at 37° C. and 5% CO2. Following incubation, 20 μl of BrightGlo luminescence reagent (Promega) was added to each well of the 384-well assay plates. The plates were placed on an orbital shaker for 2 min and then luminescence was quantified using the Envision (Perkin Elmer) plate reader. Readings were normalized to DMSO only treated cells, and normalized activities were utilized for EC50 calculations using the dose-response log (inhibitor) vs. response-variable slope (four parameters) nonlinear regression feature available in GraphPad Prism 5.0 (or Dotmatics). For EC50 of >10 μM, the percent inhibition at 10 μM is provided.

Row | SMILES | EC50 [1] [µM] | EC50 (SW480 colon cancer cells) [µM] | EC50 [2] [µM] | EC50 [3] [µM]
1 | c1ccc(CNCc2cncc(-c3ccc4[nH]nc(-c5nc6c(-c7cccnc7)nccc6[nH]5)c4n3)c2)cc1 [Compound 108, N-Benzyl-1-(5-(3-(4-(pyridin-3-yl)-1H-imidazo[4,5-c]pyridin-2-yl)-1H-pyrazolo [4,3-b]pyridin-5-yl)pyridin-3-yl)methanamine] | 0.123 | 2.58 | 9.06 | 6.78
2 | c1csc(-c2nccc3[nH]c(-c4n[nH]c5ccc(-c6ccncc6)nc45)nc23)c1 [Compound 354, 5-(Pyridin-4-yl)-3-(4-(thiophen-2-yl)-1H-imidazo[4,5-c]pyridin-2-yl)-1H-pyrazolo[4,3-b]pyridine] | 9.11 | 1.05 | 0.792 | 1.07
3 | CN1CCN(c2nccc3[nH]c(-c4n[nH]c5ccc(-c6cncc(OCc7ccccc7)c6)nc45)nc23)CC1 [Compound 646, 5-(5-(Benzyloxy)pyridin-3-yl)-3-(4-(4-methylpiperazin-1-yl)-1H-imidazo[4,5-c]pyridin-2-yl)-1H-pyrazolo[4,3-b]pyridine] | 1.49 | 3.13 | 3.98 | 3.85
4 | Cc1ncc(-c2ccc3[nH]nc(-c4nc5c(-c6cccc(F)c6)nccc5[nH]4)c3n2)n1C [Compound 509, 5-(1,2-Dimethyl-1H-imidazol-5-yl)-3-(4-(3-fluorophenyl)-1H-imidazo[4,5-c]pyridin-2-yl)-1H-pyrazolo[4,3-b]pyridine] | 0.437 | 0.688 | 0.202 | 0.036
5 | CN(C)CCNc1cc(F)cc(-c2nccc3[nH]c(-c4n[nH]c5ccc(-c6cncc(OCc7ccccc7)c6)nc45)nc23)c1 [Compound 790, N^1-(3-(2-(5-(5-(Benzyloxy)pyridin-3-yl)-1H-pyrazolo[4,3-b]pyridin-3-yl)-1H-imidazo[4,5-c]pyridin-4-yl)-5-fluorophenyl)-N^2,N^2-dimethylethane-1,2-diamine] | 0.038 | 1.57 | 3.17 | 1.11
6 | c1ccc(-c2ccc3[nH]nc(-c4nc5cnccc5[nH]4)c3n2)nc1 [Compound 280, 3-(1H-Imidazo[4,5-c]pyridin-2-yl)-5-(pyridin-2-yl)-1H-pyrazolo[4,3-b]pyridine] | 1.9 | 5.71 | 7.23 | 1.32
7 | COc1cncc(-c2ccc3[nH]nc(-c4nc5c(N6CCCCC6)nccc5[nH]4)c3n2)c1 [Compound 612, 5-(5-Methoxypyridin-3-yl)-3-(4-(piperidin-1-yl)-1H-imidazo[4,5-c]pyridin-2-yl)-1H-pyrazolo[4,3-b]pyridine] | 3.81 | 3.99 | 2.92 | 3.23
8 | FC1(F)CCN(Cc2cncc(-c3ccc4[nH]nc(-c5nc6c(N7CCCCC7)nccc6[nH]5)c4n3)c2)C1 [Compound 194, 5-(5-((3,3-Difluoropyrrolidin-1-yl)methyl)pyridin-3-yl)-3-(4-(piperidin-1-yl)-1H-imidazo[4,5-c]pyridin-2-yl)-1H-pyrazolo[4,3-b]pyridine] | 2.49 | 1.96 | 2.24 | 3.39
9 | CN(C)CCNc1cc(F)cc(-c2nccc3[nH]c(-c4n[nH]c5ccc(-c6cncc(CNCC7CCCC7)c6)nc45)nc23)c1 [Compound 473, N^1-(3-(2-(5-(5-(((Cyclopentylmethyl)amino)methyl)pyridin-3-yl)-1H-pyrazolo[4,3-b]pyridin-3-yl)-1H-imidazo[4,5-c]pyridin-4-yl)-5-fluorophenyl)-N^2,N^2-dimethylethane-1,2-diamine] | 4.66 | 8.37 | 5.06 | 4.41
10 | Oc1cncc(-c2ccc3[nH]nc(-c4nc5c(N6CCCCC6)nccc5[nH]4)c3n2)c1 [Compound 613, 5-(3-(4-(Piperidin-1-yl)-1H-imidazo[4,5-c]pyridin-2-yl)-1H-pyrazolo[4,3-b]pyridin-5-yl)pyridin-3-ol] | 3.98 | 9.37 | 9.46 | 2.2
